In patent US20230272077A1, “PD-1 SIGNAL INHIBITOR COMBINATION THERAPY” (KYOTO UNIVERSITY, priority 2015, published 2023):
Entries after “also recorded” stand apart in the source; their conditions may differ.

Assays:
[1] = test system: PGC-1α; assay: PGC-1α expression (Western blotting, real-time RT-PCR); format: in vivo, mouse; conditions: combination therapy together with PD-L1 antibody
Procedure: RNA was isolated from CD8^+ T cells or tumor cells with the RNeasy Mini Kit (Qiagen), followed by cDNA synthesis by reverse transcription. Real-time PCR for PGC-1α was performed using the following primers: Forward […] (SEQ ID NO: 1) and Reverse […] (SEQ ID NO: 2). To analyze the expression levels of genes associated with apoptosis and mitochondrial energy metabolism, RT2 Profiler PCR Array Gene Expression Kit PAMM-012Z or PAMM-008Z (Qiagen) was used. The list of genes included in this assay can be found in www.sabiosciences.com/Apoptosis.php.
CD8^+ T cells were isolated using mouse CD8 Microbeads (Miltenyi Biotec). After washing with PBS twice, 2×10^6 cells were solubilized in a lysis buffer containing 30 mM Tris-HCl (pH.7.4), 150 mM NaCl, 10% glycerol, 0.1% SDS, 1% Triton-X-100, 0.05% Na-Doc, 5 mM EDTA (pH.8.0), protease inhibitor mixture (Roche Molecular Biochemicals) and phosphatase inhibitors (Nacalai Tesque). After measurement of protein concentrations by DC protein assay (Bio-Rad), 4 μg of proteins was mounted on 4 to 20% gradient Mini-PROTEAN TGX Gels (Bio-Rad) and electroblotted onto nitrocellulose membranes, which were then incubated in a blocking buffer of TBS containing 1% BSA. Primary antibody incubations were carried out overnight at 4° C. in blocking buffer. After washing, secondary antibody incubations were carried out at room temperature for 40 min in blocking buffer. Blots were developed with enhanced chemiluminescence (Amersham Pharmacia). Primary antibodies recognizing the following proteins were used: Phospho-mTOR (P-mTOR) (Cat #5536), Phospho-AMPKa (P-AMPK) (#2535), Phospho-p70 S6 Kinase (P-S6K) (#9205), 4E-BP1 (#9644), Phospho-Acetyl-CoA Carboxylase (P-ACC) (#3661) and SIRT1 (#9475). All the primary antibodies were obtained from Cell Signaling Technology. An antibody recognizing PGC-1α (SC-13067) was obtained from Santa Cruz.

[2] = test system: MC38; assay: Mouse therapy model, MC38-bearing mice (tumor volume, survival); format: in vivo; conditions: MC38-bearing mice; for animal survival, triple combination of mTOR activator, AMPK activator and PD-L1 antibody / antitumor effect of triple combination of mTOR activator, AMPK activator and PD-L1 antibody: both activators with PD-L1 antibody; for enhancement of antitumor effect of PD-L1 antibody (tumor volume) / survival rate: reagent combined with PD-L1 antibody vs PD-L1 antibody alone; for antitumor effect when administered alone: reagent alone, no PD-L1 antibody, tumor volume
Procedure: (§1) MC38 (5×10^5) and MethA (5×10^5) cells were intradermally injected on the right flank. MC38 was inoculated into C57BL/6 mice and MethA was inoculated into BALB/c mice. For monotherapy, mice were intraperitoneally injected with 150 μg of PD-L1 mouse antibody (1-111A) (prepared by the laboratory of the present inventors) 5 days after the tumor inoculation. Therapy with PD-L1 antibody alone was repeated three times every 5 days. For combination therapy, administration of PD-L1 antibody and chemical agents started 7 days after tumor injection. Chemical agents were injected at a regular interval of 2 days and PD-L1 antibody at a regular interval of 5 days (shown in FIG. 3b). Tumors were measured on every alternate day, and tumor volumes were calculated using the formula for typical ellipsoid, π×(length×breadth×height/6).
(§2) The following chemical reagents were used at the indicated concentrations for combination therapy. AMPK activator: A769662, 6 mg/kg (Abcam); mTOR activator: MHY1485, 3 μg/kg (Sigma-Aldrich); uncoupler: carbonylcyanide-p-trifluoromethoxyphenylhydrazone (FCCP), 1.2 mg/kg (Abcam); uncoupler: 2,4-Dinitrophenol (DNP), 1.7 mg/kg (Aldrich); SIRT1 activator: resveratrol, 0.5 mg/kg (Abcam); ROS scavenger: Mn (III) tetrakis (4-benzoic acid) porphyrin (MnTBAP), 1.25 mg/kg (Calbiochem); ROS generator: tert-butyl hydroperoxide solution (Luperox TBH70X), 200 μL/kg (Sigma-Aldrich); ATP synthase inhibitor: oligomycin, 250 μg/kg (Sigma-Aldrich); paraquat 2 mg/kg (Nakalai Tesque); oltipraz 1.9 mg/kg (Sigma); bezafibrate 1 mg/kg (ChemCruz).
All reagents were freshly prepared just before use. Each reagent was dissolved in the solvent indicated in the instructions. Note that the AMPK activator, mTOR activator, uncouplers and SIRT1 activator were prepared from fresh unused vials in each series of experiments. Dissolved reagents were diluted in PBS, and a 200 l aliquot was injected per mouse.
Murine colon adenocarcinoma MC38 cells (5×10^5) were inoculated into C57BL/6 mice. After 7 days, anti-PD-L1 antibody (1-111A, 150 μg) and AMPK inhibitor (Compound C: 200 μg in BBS, 200 μL) were administered intraperitoneally. Anti-PD-L1 antibody was administered 3 times at a regular interval of 6 days; Compound C (C.C) was administered 7 times at a regular interval 2 days.
MC38 cells (5×10^5) were inoculated into C57BL/6 mice. After 7 days, anti-PD-L1 antibody (1-111A, 150 μg) and PGC-1α/transcription factor complex activator (2-(4-{2-[(4-chlorobenzoyl)amino]ethyl}phenoxy)-2-methylpropanoic acid (bezafibrate): 10 ug in PBS, 200 ul) were administered intraperitoneally. Anti-PD-L1 antibody was administered 3 times at a regular interval of 6 days; bezafibrate was administered 7 times at a regular interval 2 days.

[3] = test system: MethA; assay: Mouse therapy model, MethA-transplanted BALB/c mice (tumor volume); format: in vivo; conditions: MethA in BALB/c mice, combined with PD-L1 antibody
Procedure: as §1, §2
MethA cells (5×10^5) were inoculated into BALB/c mice. After 7 days, anti-PD-L1 antibody (1-111A, 80 μg) and Foxo1 inhibitor (5-amino-7-(cyclohexylamino)-1-ethyl-6-fluoro-4-oxo-1,4-dihydroquinoline-3-carboxylic acid, Calbiochem) (2 mg/kg) were administered intraperitoneally.
Fibrosarcoma MethA (Cell Resource Center for Biomedical Research) cells (5×10^5) were inoculated into BALB/c mice. After 7 days, anti-PD-L1 antibody (1-111A, 60 μg) and Aminoleban (Otsuka Pharmaceutical, 400 μl/mouse) were administered.

[4] = test system: tumor cells; assay: Phenotypic and transcription profile analysis of tumor cells from mice treated with reagent alone; set-up: species or system mouse; conditions: tumor cells from mice treated with reagent alone in vivo
Description: FIG. 12. […] After enzymatic digestion, tumor cells were sorted with a cell isolation kit capable of excluding non-tumor cells. The isolated tumor cells were further purified with Aria and used in the following experiments. b) Tumor cells were stained with antibodies targeting PD-L1, MHC class I, CD155 (ligand of TIGIT), and VISTA or with dyes for mitochondrial mass, membrane potential, and superoxide. c) Expression levels of genes associated with mitochondrial energy metabolism and apoptosis were examined using RT^2 profiler PCR Kit.
For analyzing draining lymph nodes, cells from axillary, brachial, and inguinal lymph nodes on the right side of tumor-inoculated mice were harvested and mixed. Averaged cell numbers per one lymph node were used as absolute cell numbers. For tumor analysis, tumor tissues were minced into 2- to 3-mm pieces with scissors and digested with collagenase type IV (Thermo Fisher Scientific) using a gentle MACS Dissociator (Miltenyi Biotec). The numbers of tumor cells per mg were used as absolute numbers. Tumor cells were isolated from digested tumor tissues using a Tumor Cell Isolation Kit, mouse (Miltenyi Biotec). This kit purifies tumor cells by excluding lymphocytes, red blood cells, fibroblasts, endothelial cells and tumor-associated stromal cells. The resultant tumor cell population was further isolated/purified with FACS Aria (BD Biosciences). […]

[5] = test system: T-bet and Eomes; assay: T-bet and Eomes expression by flow cytometry in DLN CD8+ T cells; format: in vivo, mouse; conditions: combined with PD-L1 antibody
Procedure: (§3) FIG. 15. […] Data represent the means±SEM of five mice. *p<0.05, **p<0.01, one-way ANOVA.
(§4) The following antibodies recognizing the indicated antigens were used: CD44 (1M7), CD45.2 (104), CD45.1 (A20), CD8 (53-6.7), CD62L (MEL-14), T-bet (4B/O) and IFN-7 (XMG1.2), MHC class I (AF6-88.5), CD155 (Tx56) and VISTA (MIH63) from BioLegend; p-AMPK (EPR5683) from Ancam; p-mTOR (MRRBY), Eomes (Danllmag) and PD-L1 (M1H5) from eBioscience. All flow cytometry experiments were performed on a FACS Canto II (BD Biosciences) and analyzed using FlowJo software (FLOWJO, LLC). For assessment of intracellular phosphoproteins, cells were permeabilized with 0.5% Triton-X and fixed with 1.5% PFA before staining. Determination of mitochondrial mass, membrane potential, mitochondrial superoxide and cellular ROS was performed using MitoTracker Green, Mito-Tracker Deep Red, MitoSOX Red, and CellROX Green reagents, respectively (all from Life Technologies). These dyes were added to cells to a final concentration of 0.125 μM, 0.125 μM, 5.0 μM and 0.625 μM, respectively, and incubated at 37° C. in a 5% CO2 humidified incubator for 30 min.

[6] = test system: IFN-γ; assay: Intracellular IFN-γ staining of CD8+ T cells from digested tumor tissues; format: in vivo, mouse; conditions: CD8+ T cells in tumors; combined with PD-L1 antibody
Procedure: as §3, §4

N#Cc1c(O)c2c(-c3ccc(-c4ccccc4O)cc3)csc2[nH]c1=O [AMPK activator, 6,7-dihydro-4-hydroxy-3-(2′-hydroxy[1,1′-biphenyl]-4-yl)-6-oxo-thieno[2,3-b]pyridine-5-carbonitrile]
expression levels of PGC-1α protein and mRNA [1]: increased
animal survival, triple combination of mTOR activator, AMPK activator and PD-L1 antibody [2]: improved animal survival
antitumor effect of triple combination of mTOR activator, AMPK activator and PD-L1 antibody [2]: further enhanced the effect of PD-L1 antibody
enhancement of antitumor effect of PD-L1 antibody (tumor volume) [2]: moderately augmented the efficacy of PD-1 blockade therapy in the early phase

CCn1cc(C(=O)O)c(=O)c2c(N)c(F)c(NC3CCCCC3)cc21 [Foxo1 inhibitor, 5-amino-7-(cyclohexylamino)-1-ethyl-6-fluoro-4-oxo-1,4-dihydroquinoline-3-carboxylic acid]
enhancement of antitumor effect of PD-L1 antibody (tumor volume) [3]: enhances the efficacy of anti-PD-L1 antibody therapy
enhancement of antitumor effect of PD-L1 antibody (tumor volume) ([3]; listed as AS1842856): Synergistic effect

CC(C)(C)OO [Luperox, tert-butyl hydroperoxide]
antitumor activity of triple combination of PD-L1 antibody, DNP and Luperox ([2]; DNP and Luperox both with PD-L1 antibody): stronger antitumor activity; also recorded: Antitumor effect is enhanced
antitumor effect when administered alone [2]: no antitumor activity was observed
enhancement of antitumor effect of PD-L1 antibody (tumor volume) [2]: remarkably enhanced the antitumor effect; also recorded: Synergistic effect
survival rate [2]: improved the survival rate
changes in immune-regulatory surface markers and transcriptional profiles of tumor cells [4]: no significant changes; also recorded: little effect on tumor cells in vivo

O=C(O)c1ccc(-c2c3nc(c(-c4ccc(C(=O)O)cc4)c4ccc([n-]4)c(-c4ccc(C(=O)O)cc4)c4nc(c(-c5ccc(C(=O)O)cc5)c5ccc2[n-]5)C=C4)C=C3)cc1.[Mn+3] [MnTBAP, Mn (III) tetrakis (4-benzoic acid) porphyrin]
effect of ROS scavenger on combination therapy using PD-L1 antibody and uncouplers ([2]; added to PD-L1 antibody + FCCP or DNP): inhibited

Oc1ccc(/C=C/c2cc(O)cc(O)c2)cc1 [Resveratrol, trans-3,5,4′-trihydroxystilbene]
antitumor effect when administered alone [2]: no tumor growth inhibitory effect was observed
enhancement of antitumor effect of PD-L1 antibody (tumor volume) [2]: remarkably reduced tumor sizes; also recorded: remarkable tumor inhibitory effect
survival rate [2]: improved the survival rate

CC(C)(Oc1ccc(CCNC(=O)c2ccc(Cl)cc2)cc1)C(=O)O [bezafibrate, 2-(4-{2-[(4-chlorobenzoyl)amino]ethyl}phenoxy)-2-methylpropanoic acid]
Eomes expression [5]: reduced Eomes
T-bet expression [5]: increased T-bet; also recorded: activated T-bet; also recorded: up-regulated
enhancement of antitumor effect of PD-L1 antibody (tumor volume) [2]: enhanced the tumor growth inhibitory effect of PD-L1 antibody; also recorded: synergize with PD-L1 antibody; also recorded: Synergistic effect
survival rate [2]: improved the survival rate
enhancement of antitumor effect of PD-L1 antibody (tumor volume) ([2]; listed as PGC-1α/transcription factor complex activator): enhances the efficacy of anti-PD-L1 antibody therapy
IFN-γ production [6]: increased; also recorded: up-regulated

O=[N+]([O-])c1ccc(Nc2nc(N3CCOCC3)nc(N3CCOCC3)n2)cc1 [mTOR activator, 4,6-Di-4-morpholinyl-N-(4-nitrophenyl)-1,3,5-triazin-2-amine]
expression levels of PGC-1α protein and mRNA [1]: increased
animal survival, triple combination of mTOR activator, AMPK activator and PD-L1 antibody [2]: improved animal survival
antitumor effect of triple combination of mTOR activator, AMPK activator and PD-L1 antibody [2]: further enhanced the effect of PD-L1 antibody
enhancement of antitumor effect of PD-L1 antibody (tumor volume) [2]: moderately augmented the efficacy of PD-1 blockade therapy in the early phase

C[n+]1ccc(-c2cc[n+](C)cc2)cc1.[Cl-].[Cl-] [paraquat, 1,1′-dimethyl-4,4′-bipyridinium dichloride]
enhancement of antitumor effect of PD-L1 antibody (tumor volume) [3]: enhanced the antitumor effect of PD-L1 antibody
enhancement of antitumor effect of PD-L1 antibody (tumor volume) [2]: enhanced the effect for PD-1 blockade
